Assays:
[1] = system: L02; experiment: Antiproliferative activity against human L02 cells by MTT assay; format: functional, cell-based
[2] = system: HepG2; experiment: Antiproliferative activity against human HepG2 cells by MTT assay; format: functional, cell-based
[3] = Inhibition of cell proliferation in human MCF-10A cells at 50 uM by MTT colorimetric cell viability assay relative to control; format: toxicity, cell-based
[4] = system: MCF7; experiment: Inhibition of cell proliferation in human MCF7 cells; format: functional, cell-based
[5] = system: HeLa; experiment: Cytotoxicity against human HeLa cells incubated for 48 hrs by MTT assay; format: functional, cell-based
[6] = system: HeLa; experiment: Cytotoxicity against human HeLa cells incubated for 24 hrs by MTT assay; format: functional, cell-based
[7] = system: K562; experiment: Antiproliferative activity against human K562 cells assessed as inhibition of cell viability; format: functional, cell-based
[8] = system: MCF7; experiment: Antiproliferative activity against human MCF7 cells assessed as inhibition of cell viability; format: functional, cell-based
[9] = Anticancer activity against human MCF-10A cells assessed as reduction of cell growth; format: toxicity, cell-based
[10] = system: PC-3; experiment: Anticancer activity against human PC-3 cells assessed as reduction of cell growth; format: functional, cell-based
[11] = system: A-431; experiment: Anticancer activity against human A-431 cells; format: functional, cell-based
[12] = system: MCF7; experiment: Anticancer activity against human MCF7 cells assessed as reduction of cell growth; format: functional, cell-based
[13] = system: MDA-MB-231; experiment: Anticancer activity against human MDA-MB-231 cells measured after 48 hrs by MTT assay; format: functional, cell-based; conditions: MDA-MB-231, 48 h
[14] = system: DU-145; experiment: Anticancer activity against human DU-145 cells measured after 48 hrs by MTT assay; format: functional, cell-based; conditions: DU-145, 48 h
[15] = system: LNCaP; experiment: Anticancer activity against human LNCaP cells measured after 48 hrs by MTT assay; format: functional, cell-based
[16] = system: Ishikawa; experiment: Anticancer activity against human Ishikawa cells measured after 48 hrs by MTT assay; format: functional, cell-based
[17] = system: MCF7; experiment: Anticancer activity against human MCF7 cells measured after 48 hrs by MTT assay; format: functional, cell-based; conditions: MCF7, 48 h
[18] = system: MCF7; experiment: Anticancer activity against human MCF7 cells at 10 uM by MTT assay relative to control; format: functional
[19] = system: A549; experiment: Antiproliferative activity against human A549 cells measured after 48 hrs by MTT assay; format: functional, cell-based; conditions: A549, 48 h
[20] = system: HT-29; experiment: Antiproliferative activity against human HT-29 cells measured after 48 hrs by MTT assay; format: functional, cell-based; conditions: HT-29, 48 h
[21] = Antiproliferative activity against human […] cells measured after 48 hrs by MTT assay; format: functional, cell-based
[22] = system: HeLa; experiment: Antiproliferative activity against human HeLa cells measured after 48 hrs by MTT assay; format: functional, cell-based
[23] = system: MCF7; experiment: Antiproliferative activity against human MCF7 cells measured after 48 hrs by MTT assay; format: functional, cell-based; conditions: MCF7, 48 h
[24] = system: HL-60; experiment: Antiproliferative activity against human HL-60 cells measured after 48 hrs by MTT assay; format: functional, cell-based; conditions: HL-60, 48 h
[25] = system: HepG2; experiment: Antiproliferative activity against human HepG2 cells measured after 48 hrs by MTT assay; format: functional, cell-based; conditions: HepG2, 48 h
[26] = system: SW480; experiment: Antiproliferative activity against human SW480 cells measured after 48 hrs by MTT assay; format: functional, cell-based; conditions: SW480, 48 h
[27] = system: Ehrlich; experiment: Antitumor activity against mouse Ehrlich ascites carcinoma xenografted in mouse model assessed tumor growth inhibition relative to control; format: functional; set-up: scale not given: the % may be the effect or the level left
[28] = target: T1, Amine oxidase [flavin-containing] A (Rattus norvegicus, UniProt P21396); experiment: Inhibition of rat brain MAO-A relative to control; format: tissue-based
T1 sequence (P21396 whole entry): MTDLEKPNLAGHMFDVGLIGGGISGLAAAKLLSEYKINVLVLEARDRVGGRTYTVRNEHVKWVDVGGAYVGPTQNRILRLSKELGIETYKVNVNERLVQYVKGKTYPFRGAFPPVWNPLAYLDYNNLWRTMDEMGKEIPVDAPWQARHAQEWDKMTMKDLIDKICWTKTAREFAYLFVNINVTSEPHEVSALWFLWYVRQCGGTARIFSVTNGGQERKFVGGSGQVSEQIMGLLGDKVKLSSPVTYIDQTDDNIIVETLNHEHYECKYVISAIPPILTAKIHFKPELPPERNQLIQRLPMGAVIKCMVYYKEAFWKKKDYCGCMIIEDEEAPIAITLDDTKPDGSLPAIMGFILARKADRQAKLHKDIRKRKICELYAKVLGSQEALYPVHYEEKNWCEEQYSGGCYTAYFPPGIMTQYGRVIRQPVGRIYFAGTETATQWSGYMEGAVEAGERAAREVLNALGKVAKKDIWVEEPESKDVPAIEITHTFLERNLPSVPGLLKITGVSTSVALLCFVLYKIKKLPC

[29] = system: Sarcoma-180; experiment: Antitumor activity against mouse Sarcoma-180 xenografted in mouse model assessed tumor growth inhibition relative to control; format: functional; set-up: scale not given: the % may be the effect or the level left
[30] = system: HCT-116; experiment: Cytotoxicity against human HCT-116 cells incubated overnight by MTT assay; format: functional, cell-based
[31] = system: HepG2; experiment: Cytotoxicity against human HepG2 cells incubated overnight by MTT assay; format: functional, cell-based
[32] = system: MCF7; experiment: Anticancer activity against human MCF7 cells assessed as inhibition of cell growth by MTT assay; format: functional, cell-based
[33] = system: HeLa; experiment: Anticancer activity against human HeLa cells assessed as inhibition of cell growth by MTT assay; format: functional, cell-based
[34] = system: A549; experiment: Anticancer activity against human A549 cells assessed as inhibition of cell growth by MTT assay; format: functional, cell-based

For `O=C1C(=O)C2C(N=C3N=NNN3C23C(=O)Nc2ccc(F)cc23)c2ccccc21` (stereo unspecified), the IC50 [1] was 58.9 µM and the IC50 [2] was 2.86 µM.

Compound `O=C1Nc2ccccc2C12CCNC2c1ccccc1` (stereo unspecified) has an inhibition at 50 µM [3] of 0.08% and an EC50 [4] of 3.53 µM.

`O=C(c1ccc(F)cc1)C1C(C(=O)c2ccc(F)cc2)C12C(=O)Nc1ccccc12` (stereo unspecified) showed an IC50 [5] of 6.25 µM and an IC50 [6] of 11.2 µM.

`O=C1/C(=C/c2c(Cl)cccc2Cl)CCCC12[C@@H]1CCCN1[C@@]1(C(=O)Nc3ccccc31)[C@H]2c1c(Cl)cccc1Cl` (stereo partly specified) showed an IC50 [7] of 16.6 µM and an IC50 [8] of 19.4 µM.

Compound `CC1(C)CC(=O)C2C(C1)N(c1ccccc1F)C(=O)C21c2ccccc2NC2C(=O)CC(C)(C)CC21` (stereo unspecified) has an IC50 [9] of 36.3 µM, an IC50 [10] of 84.9 µM and an IC50 [11] of 52.1 µM. For the same compound, the IC50 [12] was 7.82 µM.

`O=C1NC2(C3=C(C(=O)C4C=CC=CC4C3=O)c3ccccc32)c2cc(Cl)c(Cl)cc21` (stereo unspecified) showed an IC50 [13] of 3.01 µM, an IC50 [14] of 2.13 µM and an IC50 [15] of 1.1 µM. For the same compound, the IC50 [16] was 0.75 µM and the IC50 [17] was 1.02 µM.

Compound `CCOC(=O)c1[nH]nc2c1C1(C(=O)N(C(C)=O)c3ccccc31)C(C#N)=C(N)O2` (stereo unspecified) has an inhibition at 10 µM [18] of 15.7%.

For `CC(=O)O[C@H]1CC[C@]2(C)C3CC[C@@]4(C)C(CC[C@H]4[C@H](C)CCCC(C)C)C3C[C@@]3(N=C4C=CC=CN4/C3=N\c3ccccc3)C2C1` (stereo partly specified), the IC50 [19] was 5.39 µM, the IC50 [20] was 5.04 µM and the IC50 [21] was 5.35 µM. It also gave an IC50 [22] of 3.56 µM, an IC50 [23] of 4.31 µM and an IC50 [24] of 4.46 µM. It also gave an IC50 [25] of 2.43 µM and an IC50 [26] of 5 µM.

In the case of `CCn1c(SCc2ccc(Cl)cc2)nc2c(c1=O)C1(CCCCC1)Cc1ccccc1-2`, the Activity [27] is reported as 56%, the “inhibition (INH)” value [28] is reported as 50% and the Activity [29] is reported as 40%.

In the case of `O=C(/C=C/c1cccc(Br)c1)[C@H]1[C@H](c2cccc(Br)c2)C2CSCN2[C@]12C(=O)Nc1cc(Br)c(Br)cc12` (stereo partly specified), the IC50 [30] is reported as 1.57 µM and the IC50 [31] is reported as 0.9 µM.

`O=C1Nc2ccc(Br)cc2C12c1c([nH]c(=O)[nH]c1=O)N(c1ccc(N3CCOCC3)c(F)c1)c1[nH]c(=O)[nH]c(=O)c12` showed an IC50 [32] of 23 µM, an IC50 [33] of 6.81 µM and an IC50 [34] of 25.6 µM.

With `O=C1C(=O)C2C(N=C3N=NNN3C23C(=O)Nc2c(Cl)cccc23)c2ccccc21` (stereo unspecified) the IC50 [1] was 49.5 µM and the IC50 [2] was 3.03 µM.

For `COc1ccc(/C=C2\CCCC3(C2=O)[C@@H]2CCCN2[C@@]2(C(=O)Nc4ccccc42)[C@H]3c2ccc(OC)cc2)cc1` (stereo partly specified), the IC50 [7] was 13.4 µM and the IC50 [8] was 18.6 µM.

In the case of `CC(C)CCC[C@@H](C)[C@@H]1CCC2C3C[C@@]4(N=C5C=CC=CN5/C4=N\c4ccccc4)C4CCCC[C@]4(C)C3CC[C@@]21C` (stereo partly specified), the IC50 [19] is reported as 2.62 µM, the IC50 [20] is reported as 3.1 µM and the IC50 [21] is reported as 5.38 µM. It also gave an IC50 [22] of 3.84 µM, an IC50 [23] of 4.8 µM and an IC50 [24] of 5.07 µM. It also gave an IC50 [25] of 4.24 µM and an IC50 [26] of 5.21 µM.

`CC(C)CCC[C@@H](C)[C@@H]1CCC2C3C[C@@]4(N=C5C=CC=CN5/C4=N\c4ccccc4)C4C[C@@H](Cl)CC[C@]4(C)C3CC[C@@]21C` (stereo partly specified) gave an IC50 [19] of 3.09 µM, an IC50 [20] of 2.18 µM and an IC50 [21] of 3.17 µM. It also gave an IC50 [22] of 5.41 µM, an IC50 [23] of 3.93 µM and an IC50 [24] of 2.62 µM. The IC50 [25] was 5.32 µM and the IC50 [26] was 3.42 µM.

Compound `O=C1Nc2ccccc2C12CCNC2c1cccc(F)c1` (stereo unspecified) has an inhibition at 50 µM [3] of 4.48% and an EC50 [4] of 6 µM.

In the case of `O=C1C2=C(c3ccccc31)N(c1ccc(N3CCOCC3)c(F)c1)C1=C(C(=O)c3ccccc31)C21C(=O)Nc2ccccc21`, the IC50 [32] is reported as 6.47 µM, the IC50 [33] is reported as 9.14 µM and the IC50 [34] is reported as 17.8 µM.

For `Cc1cn(CN2C(=O)C3(c4ccccc42)C(C(=O)c2ccccc2)C3C(=O)c2ccc(Cl)cc2)nn1` (stereo unspecified), the IC50 [5] was 4.5 µM and the IC50 [6] was 9.3 µM.

Reference: ChEMBL document CHEMBL5233269, “Anticancer potential of spirocompounds in medicinal chemistry: A pentennial expedition” (Eur J Med Chem, 2021)
